Measurements published in publication PMC11840923, “Kinetic and Thermodynamic Characterization of Human 4-Oxo-L-proline Reductase Catalysis” (Biochemistry, 2025).

What was measured:
[1] = target: T1, 4-oxo-L-proline reductase (HsBDH2) (Homo sapiens, UniProt Q9BUT1); assay: ITC at […] °C, pH […] ([…] stoichiometry); also DSF and stopped-flow koff; format: binding
T1 construct: gene BDH2

[2] = target: T1, 4-oxo-L-proline reductase (HsBDH2); assay: ITC at […] °C, pH […] (number of sites fixed at one); also DSF; format: binding

T1 sequence (Q9BUT1 whole entry): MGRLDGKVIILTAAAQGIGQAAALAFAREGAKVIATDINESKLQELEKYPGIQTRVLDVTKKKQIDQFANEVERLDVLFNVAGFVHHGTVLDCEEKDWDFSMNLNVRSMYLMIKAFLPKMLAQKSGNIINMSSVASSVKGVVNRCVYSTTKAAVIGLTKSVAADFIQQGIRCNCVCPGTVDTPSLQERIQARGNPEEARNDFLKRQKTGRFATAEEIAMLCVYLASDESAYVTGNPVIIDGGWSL

Structure (SMILES) | Kd [1] | Kd [2]
NC(=O)C1=CN([C@@H]2O[C@H](COP(=O)(O)OP(=O)(O)OC[C@H]3O[C@@H](n4cnc5c(N)ncnc54)[C@H](O)[C@@H]3O)[C@@H](O)[C@H]2O)C=CC1 [NADH] | 0.48 µM | 
NC(=O)c1ccc[n+]([C@@H]2O[C@H](COP(=O)([O-])OP(=O)(O)OC[C@H]3O[C@@H](n4cnc5c(N)ncnc54)[C@H](O)[C@@H]3O)[C@@H](O)[C@H]2O)c1 [NAD^+] |  | 29 µM
